Results taken from US9254269B2, “Method of managing hypercortisolemia, headache disorders, neuropathic pain and related disorders” (Indus Biotech Private Limited, priority 2011, dated 2016).

Key:
5-HT1A receptor = target: T1, 5-HT1A receptor (Mus musculus, UniProt Q64264); experiment: Forced swim test, alone and after 5-HT1A receptor antagonist NAN-190; assay type: in vivo, Swiss albino mice; conditions: NAN-190 1 mg/kg p.o. alone
T1 construct: Male Swiss albino mice weighing 25-30 g were treated with antagonist of 5-HT1A receptor (NAN-190); from tissue; host or cells: whole living animal (male Swiss albino mice)
T1 sequence (Q64264 1-421): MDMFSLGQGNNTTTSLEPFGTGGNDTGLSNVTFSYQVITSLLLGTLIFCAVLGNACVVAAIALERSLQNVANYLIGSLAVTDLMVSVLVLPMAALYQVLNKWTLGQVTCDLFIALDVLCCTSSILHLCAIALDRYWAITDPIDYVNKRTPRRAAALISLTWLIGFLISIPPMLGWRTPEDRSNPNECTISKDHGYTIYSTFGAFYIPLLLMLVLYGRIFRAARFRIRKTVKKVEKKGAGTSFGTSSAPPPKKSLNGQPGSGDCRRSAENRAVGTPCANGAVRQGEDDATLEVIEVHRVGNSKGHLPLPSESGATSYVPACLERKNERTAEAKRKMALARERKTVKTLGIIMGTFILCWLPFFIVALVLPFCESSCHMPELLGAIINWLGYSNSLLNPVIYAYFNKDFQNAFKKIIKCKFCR
Method: The activity of the test composition was evaluated by first blocking the 5-HT1A receptor with an antagonist followed by treatment with the test composition. The activity was measured in terms of immobility time of the test animals subjected to forced swim test.
Procedure: Male Swiss albino mice weighing 25-30 g were treated with antagonist of 5-HT1A receptor (NAN-190) at 1 mg/kg (p.o.) followed by administration of test composition at either 10 mg/kg (p.o.) or 30 mg/kg (p.o.). One hour after treatment, the animals were subjected to forced swim test and the immobility time was measured. A cut-off time of 360 sec was used.

[1] = tested on: Nitroglycerine induced hyperalgesia in rats; experiment: Tail flick response latency in nitroglycerine induced hyperalgesia, oral treatment; test composition 41% asiaticoside and 36% madecassoside; assay type: in vivo, Wistar rats; conditions: 20 mg/kg p.o.

Row | Compound | Immobility Time (5-HT1A receptor) | % Reduction in Immobility Time (5-HT1A receptor; vs Normal Control) | Response latency in tail flick ([1]; 0 min after treatment, 20 seconds cut off) | Response latency in tail flick ([1]; 30 min after treatment) | Response latency in tail flick ([1]; 60 min after treatment) | Response latency in tail flick ([1]; 90 min after treatment) | Response latency in tail flick ([1]; 120 min after treatment) | Response latency in tail flick ([1]; 180 min after treatment) | Response latency in tail flick ([1]; 240 min after treatment)
1 | COc1ccccc1N1CCN(CCCCN2C(=O)c3ccccc3C2=O)CC1 [NAN-190] | 232.0 ± 1.63 s | −8.26% | – | – | – | – | – | – | –
2 | CC(C)=CCN1CCC2(C)c3cc(O)ccc3CC1C2C (stereo not drawn) [Pentazocine] | – | – | 8.42 ± 0.22 | 15.27 ± 0.26 | 15.23 ± 0.17 | 15.78 ± 0.24 | 15.50 ± 0.48 | 15.18 ± 0.45 | 15.03 ± 0.28
